What was measured:
fos = fos / c-fos mRNA expression in chondrocytes (Northern blot); format: cell-based, bovine; conditions: stimulus alone; H2 O2 30, 60 and 90 minutes; IL-1, PMA or AA (3 μM) 1 hour
Description: (§1) The cytokine interleukin 1 (IL 1) has been used to identify the intermediate second messengers which regulate the expression of fos and jun.
In order to elucidate this possibility, the effect of DPI on fos and jun mRNA levels induced by IL 1 was investigated. RNA from chondrocytes treated with IL 1 in the presence and absence of DPI were analyzed by Northern blot analysis using either fos or collagenase cDNA probes.
Since superoxides are rapidly converted to hydrogen peroxide in the cell by superoxide dismutase, whether hydrogen peroxide could mimic the effect of IL 1 in the induction of fos expression was investigated. RNA was extracted from chondrocytes (Kandel et al. supra) treated with H2 O2 for 30, 60 and 90 minutes and examined by Northern blot analysis using a fos cDNA probe.
Bovine articular chondrocytes were isolated and plated as previously described (Kandel R. A. et al. Biochim. Biophys. Acta. 1053, 130-134, 1990). […] The amount of ^3 H-AA liberated into the supernatant was determined. To measure PGE2 production, chondrocytes were incubated for 6 hours in Ham's F12 medium, either alone or with IL 1 or PMA. […] In order to examine the expression of c-fos and c-jun, chondrocytes were incubated for 1 hour in the presence of IL-1, PMA or AA (3 μM). Chondrocytes were washed in PBS and the total RNA extracted as previously described (Cruz. et al, 1991, Biochem. J. 277, 327-330). RNA samples were run on formaldehyde agarose gels and transferred to nylon membrane for northern analysis using cDNA probes for c-fos and c-jun.
The RNA was extracted and examined by Northern blot analysis using cDNA probes for c-fos and collagenase.

jun = jun / c-jun mRNA expression in chondrocytes (Northern blot); format: cell-based, bovine; conditions: stimulus alone, 1 hour
Source text: as §1
Although IL 1 stimulated superoxide production, it was not known whether IL 1 induced fos and jun expression was dependent on the production of superoxides. In order to elucidate this possibility, the effect of DPI on fos and jun mRNA levels induced by IL 1 was investigated. RNA from chondrocytes treated with IL 1 in the presence and absence of DPI were analyzed by Northern blot analysis using either fos or collagenase cDNA probes. […] Similar data has been obtained for IL 1 induced jun expression. Furthermore, inhibition of fos and jun expression by DPI was sufficient to suppress IL 1 induced and constitutive collagenase expression.
The effect of orthovanadate and N-acetylcysteine on fos, jun and collagenase expression were examined. Bovine articular chondrocytes were isolated and plated as previously described (Kandel R. A. et al. Biochim. Biophys. Acta. 1053, 130-134, 1990). In order to determine the effect of orthovanadate on IL 1 and PMA (phorbol ester) induced responses, chondrocytes were incubated with orthovanadate (100 μM) for 2 hours before stimulation with IL 1 (10 ng/ml) or PMA ([…]). Collagenase production was determined by incubating chondrocytes for 24 hours with IL 1 or PMA and the cell conditioned medium was assayed for collagenase activity using an ELISA procedure as described previously (Kandel et al. supra). PLA2 activity was measured by incorporating ^3 H-arachidonic acid (^3 H-AA) into the cells and then incubating the cells with medium containing 1 mg/ml BSA, either alone or in the presence of IL 1 or PMA, for 10 min. as previously described (Conquer, J. A. […], Biochim. Biophys. Acta. 1134, 1-6). The amount of ^3 H-AA liberated into the supernatant was determined. […] The supernatant was analyzed by RIA using an antibody specific for PGE2 (Dr. S. A. Jones, Mount Sinai Hospital, Toronto, Canada). […]

c-fos = assay: TNFα and bFGF induced c-fos mRNA in chondrocytes (Northern blot); format: cell-based, bovine; conditions: 100 μM, 2 hours preincubation
Description: Chondrocyte cultures were stimulated with H2 O2 (100 μM) at different time points as indicated. […] Chondrocyte cultures were preincubated with NAC (30 mM) or Asc (100 μM) for 2 hours before the addition of bFGF (10 ng/ml) or TNFα (30 ng/ml) for 30 minutes. Both human recombinant TNFα and bFGF were dissolved in phosphate buffered saline with 0.1% bovine serum albumin. NAC and Asc were first dissolved in Ham's F12 medium containing 5% (v/v) fetal bovine serum, then neutralized with sodium hydroxide. Total RNA from bovine articular chondrocytes was isolated and the c-fos mRNA levels were determined by Northern blot analysis as described herein. The blots were subsequently stripped of DNA and re-probed with ^32 p-labelled rat β tubulin cDNA.
Chondrocyte cultures were pretreated with DPI (2 μM) for 30 minutes before the addition of TNFα (30 ng/ml) or bFGF (10 ng/ml) for 30 minutes. Measurements of c-fos and tubulin mRNA levels were as described in Example 11.

carcinogenesis = conditions: G. Shklar et al.; cited from earlier work
collagenase = collagenase production by chondrocytes (ELISA); format: cell-based, bovine; conditions: stimulus alone, 24 hours
Description: The effect of orthovanadate and N-acetylcysteine on fos, jun and collagenase expression were examined. Bovine articular chondrocytes were isolated and plated as previously described (Kandel R. A. et al. Biochim. Biophys. Acta. 1053, 130-134, 1990). In order to determine the effect of orthovanadate on IL 1 and PMA (phorbol ester) induced responses, chondrocytes were incubated with orthovanadate (100 μM) for 2 hours before stimulation with IL 1 (10 ng/ml) or PMA ([…]). Collagenase production was determined by incubating chondrocytes for 24 hours with IL 1 or PMA and the cell conditioned medium was assayed for collagenase activity using an ELISA procedure as described previously (Kandel et al. supra). PLA2 activity was measured by incorporating ^3 H-arachidonic acid (^3 H-AA) into the cells and then incubating the cells with medium containing 1 mg/ml BSA, either alone or in the presence of IL 1 or PMA, for 10 min. as previously described (Conquer, J. A. […], Biochim. Biophys. Acta. 1134, 1-6). The amount of ^3 H-AA liberated into the supernatant was determined. To measure PGE2 production, chondrocytes were incubated for 6 hours in Ham's F12 medium, either alone or with IL 1 or PMA. The supernatant was analyzed by RIA using an antibody specific for PGE2 (Dr. S. A. Jones, Mount Sinai Hospital, Toronto, Canada). In order to examine the expression of c-fos and c-jun, chondrocytes were incubated for 1 hour in the presence of IL-1, PMA or AA (3 μM). Chondrocytes were washed in PBS and the total RNA extracted as previously described (Cruz. et al, 1991, Biochem. J. 277, 327-330). RNA samples were run on formaldehyde agarose gels and transferred to nylon membrane for northern analysis using cDNA probes for c-fos and c-jun.

PLA2 = assay: release of 3H-arachidonic acid from chondrocytes (PLA2 activity); format: cell-based, bovine; conditions: stimulus alone, 10 min
Description: (§2) The effect of orthovanadate and N-acetylcysteine on fos, jun and collagenase expression were examined. Bovine articular chondrocytes were isolated and plated as previously described (Kandel R. A. et al. Biochim. Biophys. Acta. 1053, 130-134, 1990). In order to determine the effect of orthovanadate on IL 1 and PMA (phorbol ester) induced responses, chondrocytes were incubated with orthovanadate (100 μM) for 2 hours before stimulation with IL 1 (10 ng/ml) or PMA ([…]). Collagenase production was determined by incubating chondrocytes for 24 hours with IL 1 or PMA and the cell conditioned medium was assayed for collagenase activity using an ELISA procedure as described previously (Kandel et al. supra). PLA2 activity was measured by incorporating ^3 H-arachidonic acid (^3 H-AA) into the cells and then incubating the cells with medium containing 1 mg/ml BSA, either alone or in the presence of IL 1 or PMA, for 10 min. as previously described (Conquer, J. A. […], Biochim. Biophys. Acta. 1134, 1-6). The amount of ^3 H-AA liberated into the supernatant was determined. To measure PGE2 production, chondrocytes were incubated for 6 hours in Ham's F12 medium, either alone or with IL 1 or PMA. The supernatant was analyzed by RIA using an antibody specific for PGE2 (Dr. S. A. Jones, Mount Sinai Hospital, Toronto, Canada). […]

PGE2 = PGE2 production by chondrocytes (RIA); format: cell-based, bovine; conditions: stimulus alone, 6 hours
Description: as §2

KB8, KB8-5 and KB85-11 = conditions: stated as background; cited from earlier work
P388 (WT) = assay: MTT cytotoxicity assay, P388 (WT); format: cell-based, murine; conditions: Mus musculus, P388, 72 h, read-out: IC50 Value
Description: (§3) The relative cytotoxicity of various compounds on tumor cell lines was investigated as follows. Cytotoxicity was measured by the MTT microculture tetrazolium colorimetric assay for all cell lines. The relative cytotoxicity of Na3 VO4 and VOSO4 was investigated using the following tumor cell lines: P388(WT) murine leukemia, P388 (ADR) murine leukemia, Lewis murine lung, MCF7 (WT) human breast, […] human lung, K562 human erythroleukemia, A431 human epidermal, LS180 human colon and SK-OV-3 human ovarian. The relative cytotoxicity of doxorubicin, Na3 VO4 and VOSO4 was investigated using the following tumor cell lines: P388(WT) murine leukemia, P388 (ADR) murine leukemia, MCF7(WT) human breast and MCF7 (ADR) human breast. The relative cytotoxicity of BMOV, BEOV and naglivan was investigated using the following tumor cell lines: P388(WT) murine leukemia, P388 (ADR) murine leukemia, Lewis murine lung, H460 human lung, K562 human erythroleukemia, and SK-OV-3 human ovarian.
(§4) The cells were plated (number of cells/well was different from cell line to cell depending on the dividing rate) in a 96-well microculture plate 24 hours prior to the delivery of the vanadium compounds. Serial concentrations of solutions of the test compounds (0.05-100 μM) were delivered to the corresponding wells. A blank column (without cells) and a control column (with cells without vanadium) were left. The cells were incubated for 72 hours continuously. An MTT solution was added to each well after this incubation period and the cells were incubated for 4 more hours for the completion of the dyeing process. The medium was removed find DMSO was added to each well. The absorbance of each well was read with a Titertek Multiskan (310C) spectrophotometer at 570 nm. The percentage of the absorbance of each vanadium concentration relative to the control calculated and the value of the 50% growth inhibition concentration (IC50) was obtained from the % control versus concentration plot. Each assay was repeated three times and the reported IC50 values were the mean of these three runs.

P388 (ADR) = assay: MTT cytotoxicity assay, P388 (ADR); format: cell-based, murine; conditions: Mus musculus, P388/ADR, 72 h, read-out: IC50 Value
Description: as §3, §4

MCF7 (WT) = assay: MTT cytotoxicity assay, MCF7 (WT); format: cell-based, human; conditions: Homo sapiens, MCF7, 72 h, read-out: IC50 Value
Description: as §3, §4

MCF7 (ADR) = assay: MTT cytotoxicity assay, MCF7 (ADR); format: cell-based, human; conditions: Homo sapiens, NCI/ADR-RES, 72 h, read-out: IC50 Value
Description: as §3, §4

chondrocytes = assay: TNFα and bFGF induced ROS production in chondrocytes (DHR fluorescence); format: cell-based; conditions: 4 hours in the presence of DHR
Description: With time, DHR by itself caused a shift in fluorescence to the right as shown in panels a to c. A dotted line was drawn through the mean fluorescence intensity of the control (panel c) with DHR alone for 4 hours. After incubation with TNFα or bFGF for 4 hours in the presence of DHR, there was a further shift in logarithmic fluorescence intensity as indicated in panel d or f. In panels e and g, DPI abolished the fluorescent shift stimulated by TNPα and bFGF respectively.

Question: Which “stimulation of fos / c-fos expression” value (fos) does the source give for CCCCC/C=C\C/C=C\C/C=C\C/C=C\CCCC(=O)O [AA, arachidonic acid] here?
Answer: stimulated

Question: What about the “stimulation of c-jun expression” value (jun) of the same compound?
Answer: stimulated

Question: Which “inhibition of TNFα and bFGF induced c-fos mRNA levels” value (c-fos) does the source give for O=C1O[C@H]([C@@H](O)CO)C(O)=C1O [Asc, ascorbic acid] here?
Answer: inhibit

Question: And the anticancer activity (carcinogenesis)?
Answer: anticancer activity

Question: For CCCCCCCCCCCCCC(=O)O[C@@H]1[C@@H](C)[C@@]2(O)[C@@H](C=C(CO)C[C@]3(O)C(=O)C(C)=C[C@@H]23)[C@@H]2C(C)(C)[C@]12OC(C)=O [PMA, reference compound], which “stimulation of fos / c-fos expression” value (fos) is on record?
Answer: stimulated

Question: And the “stimulation of c-jun expression” value (jun)?
Answer: stimulated

Question: What about the “induction of collagenase production” value (collagenase) of the same compound?
Answer: induced

Question: What about the “induction of 3H-AA release” value (PLA2) of the same compound?
Answer: induced

Question: What about the “induction of PGE2 production” value (PGE2) of the same compound?
Answer: induced

Question: Which “killing of drug resistant cell lines by conventional chemotherapeutic agents” value (shortened to “killing of drug resistant cell lines”) (KB8, KB8-5 and KB85-11) does the source give for COc1cc2c(c(OC)c1OC)-c1ccc(OC)c(=O)cc1[C@@H](NC(C)=O)CC2 [colchicine] here?
Answer: not killed

Question: With COc1cccc2c1C(=O)c1c(O)c3c(c(O)c1C2=O)C[C@@](O)(C(=O)CO)C[C@@H]3O[C@H]1C[C@H](N)[C@H](O)[C@H](C)O1 [doxorubicin, reference compound] as the compound, how does the IC50 (P388 (WT)) read?
Answer: 23 nM

Question: And the IC50 (P388 (ADR))?
Answer: 3770 nM

Question: What about the IC50 (MCF7 (WT)) of the same compound?
Answer: 492 nM

Question: What about the IC50 (MCF7 (ADR)) of the same compound?
Answer: 25700 nM

Question: What about the “killing of drug resistant cell lines” value (KB8, KB8-5 and KB85-11) of the same compound?
Answer: not killed

Question: For CC[C@]1(O)C[C@@H]2CN(CCc3c([nH]c4ccccc34)[C@@](C(=O)OC)(c3cc4c(cc3OC)N(C)[C@H]3[C@@](O)(C(=O)OC)[C@H](OC(C)=O)[C@]5(CC)C=CCN6CC[C@]43[C@@H]65)C2)C1 [vinblastine], which “killing of drug resistant cell lines” value (KB8, KB8-5 and KB85-11) is on record?
Answer: not killed

Question: With TNFα as the compound, how does the “shift in logarithmic fluorescence intensity (ROS production)” value (chondrocytes) read?
Answer: further shift

Question: For bFGF: human recombinant bFGF, which “shift in logarithmic fluorescence intensity (ROS production)” value (chondrocytes) is on record?
Answer: further shift

Source: US5871779A, “Treatment of arthropathies with vanadate compounds or analogues thereof” (Mount Sinai Hospital Corporation, priority 1996, dated 1999)
